How the values were obtained:
Format in all cases: in vivo, SCID mice
[1] = test system: H1703 Non-Small Cell Lung Cancer (NSCLC) Xenograft; assay: H1703 non-small cell lung cancer (NSCLC) xenograft model, tumor volume; settings: day 38; FGFR1-ECD.339-Fc 15 mg/kg i.p. 2x/wk; docetaxel 25 mg/kg i.p. 1x/3 wk x 2 doses
Experimental: Human non-small cell lung cancer (NSCLC) cell line H1703 was used as the tumor model and was purchased from ATCC (Manassas, Va.; Cat. No. CRL-5889).
Docetaxel was purchased from Toronto Research Chemicals (North York, Ontario, Canada; cat. No. D494420) and formulated in H2O containing 5% Tween 80 and 5% glucose. Docetaxel was administered i.p. at 25 mg/kg (equivalent to about 75 mg/m^2 in a human) once every three weeks for two doses. In combination groups, FGFR1-ECD.339-Fc and docetaxel were either given concurrently or sequentially with FGFR1-ECD.339-Fc given one day before docetaxel or vice versa. Human albumin was purchased from Grifols USA (Los Angeles, Calif.; Cat. No. NDC 61953-0002-1), formulated in PBS at 3 mg/mL and was used as negative control at 300 μg/100 μL/mouse (15 mg/kg).
The tumor volume was measured by external caliper to determine the greatest longitudinal diameter (length) and the greatest transverse diameter (width). The tumor volume was then calculated using the following formula: Tumor volume (mm^3)=(length×width^2)/2

[2] = test system: H520 Non-Small Cell Lung Cancer (NSCLC) Xenograft; assay: H520 non-small cell lung cancer (NSCLC) xenograft model, tumor volume
Experimental: Dosing for all groups began one day post tumor implantation.
In combination groups, FGFR1-ECD.339-Fc and pemetrexed were administered on the same schedule as when given as single agents, and were administered concurrently on days 1, 4, 8, and 11.

[3] = test system: A549 Non-Small Cell Lung Cancer (NSCLC) Xenograft; assay: A549 non-small cell lung cancer (NSCLC) xenograft model, tumor volume
Experimental: Six weeks old female SCID mice were purchased from Charles River Laboratories (Wilmington, Mass.) and were acclimated for 1 week before the start of the study. […] The cells were implanted subcutaneously over the right flank of the mice at 5×10^6 cells/100 μl/mouse. One day after tumor implantation, mice were randomized according to body weight at 10 mice per group.
The tumor volume and body weight of the mice were monitored twice a week throughout each study.
The tumor volume of each group of mice at the end of each study was analyzed by one-way ANOVA followed by Tukey's test.
Cisplatin was purchased from Sigma-Aldrich (St. Louis, Mo.; Cat. No. P4394), formulated in 0.9% saline, and administered i.p. at 3.5 mg/kg ([…]) once per week for six weeks. Saline was used as negative control and was administered i.p. at 100 μl per mouse twice a week for six weeks.
On day 42, when the average tumor volume in the vehicle group reached 1300 mm^3, the mice were euthanized by isoflurane inhalation and cervical dislocation.
FGFR1-ECD.339-Fc was formulated in 0.9% Saline for Injection USP at 3 mg/ml. […] FGFR1-ECD.339-Fc was administered intraperitoneally (i.p.) at 15 mg/kg twice per week for 5 weeks. Paclitaxel was administered i.p. at 18 mg/kg on days 8, 12, and 15.
When the average tumor volume in vehicle control group reached ˜500 mm^3, the mice were euthanized by isoflurane inhalation and cervical dislocation.
FGFR1-ECD.339-Fc was formulated in 0.9% Saline for Injection USP at 3 mg/ml. 5-FU was purchased from Sigma-Aldrich (St. Louis, Mo.; Cat. No. F6627) and was initially dissolved in dimethyl sulfoxide (DMSO, Sigma-Aldrich, St. Louis, Mo.; Cat. No. D8418-50) at the concentration of 50 mg/ml as a stock solution. The stock solution was further diluted in 0.9% Sodium Chloride Injection USP to 6.6 mg/ml (for 33 mg/kg dosing). FGFR1-ECD.339-Fc was administered intraperitoneally (i.p.) at 15 mg/kg twice per week for four weeks. 5-FU was administered i.p. at 33 mg/kg twice a week for three weeks.
Mice were euthanized on day 31 by isoflurane inhalation and cervical dislocation.
FGFR1-ECD.339-Fc was formulated in PBS at 3 mg/ml and administered intraperitoneally (i.p.) at 15 mg/kg (300 μg/100 μl/mouse) twice a week for four weeks. Docetaxel was administered i.p. at 3 mg/kg or 10 mg/kg twice per week for four weeks.
Mice in the albumin control group were euthanized on day 32 by isoflurane inhalation and cervical dislocation when the average tumor volume in the group reached 1000 mm^3.

[4] = test system: A549 Non-Small Cell Lung Cancer (NSCLC) Xenograft; assay: as above; settings: day 28; FGFR1-ECD.339-Fc 15 mg/kg and carboplatin 25 mg/kg i.p. 2x/wk from day 7 x 3 wks; paclitaxel 30 mg/kg i.p. 2x/wk from day 8 x 3 wks
[5] = test system: Colo205 Colon Cancer Xenograft; assay: Colo205 colon cancer xenograft model, tumor volume; settings: day 17; FGFR1-ECD.339-Fc 15 mg/kg i.p. 2x/wk x 4 wks; 5-FU and leucovorin 10 mg/kg each i.p. daily x 5 days; oxaliplatin 15 mg/kg twice per week
[6] = day 49, FGFR1-ECD.339-Fc alone 15 mg/kg i.p. 2x/wk x 6 wks
[7] = day 42, FGFR1-ECD.339-Fc 20 mg/kg i.p. 2x/wk x 6 wks, cisplatin 3.5 mg/kg i.p. 1x/wk x 6 wks

Substance: FGFR1-ECD.339-Fc: human FGFR1 extracellular domain ending at amino acid 339 fused to an Fc; SEQ ID NO: 6 (mature form)
- Fractional tumor volume (FTV), each treatment alone [1]: 0.68
- Mean Tumor volume mm^3(±SD) [1]: 557 (±151) mm^3
- Tumor growth inhibition (%) [1]: 33%
- Tumor inhibition over the course of the study (mean tumor volume) ([2]; FIGS. 2A, 3A, 4A, FGFR1-ECD.339-Fc 15 mg/kg, pemetrexed alone at the low or medium dose (62.5 or 125 mg/kg), combination dosed concurrently): resulted in tumor inhibition
- Fractional tumor volume (FTV), each treatment alone ([2]; day 49, FGFR1-ECD.339-Fc 15 mg/kg, pemetrexed 62.5 mg/kg): 0.68
- Fractional tumor volume (FTV), each treatment alone ([2]; day 49, FGFR1-ECD.339-Fc 15 mg/kg, pemetrexed 125 mg/kg): 0.68
- Fractional tumor volume (FTV), each treatment alone ([2]; day 49, FGFR1-ECD.339-Fc 15 mg/kg, pemetrexed 250 mg/kg): 0.68
- Mean Tumor volume mm^3(±SD) [2, 6]: 630.4 (±461.5) mm^3
- Tumor growth inhibition (%) [2, 6]: 31%
- Fractional tumor volume (FTV), each treatment alone ([3]; day 31, FGFR1-ECD.339-Fc 15 mg/kg i.p. 2x/wk x 4 wks, 5-FU 33 mg/kg i.p. 2x/wk x 3 wks): 0.84
- Fractional tumor volume (FTV), each treatment alone ([3]; day 31, FGFR1-ECD.339-Fc 15 mg/kg i.p. 2x/wk x 5 wks, paclitaxel 18 mg/kg i.p. days 8, 12, 15): 0.84
- Fractional tumor volume (FTV), each treatment alone ([3]; day 32, FGFR1-ECD.339-Fc 15 mg/kg i.p. 2x/wk x 4 wks, docetaxel 3 mg/kg i.p. 2x/wk x 4 wks): 0.54
- Fractional tumor volume (FTV), each treatment alone ([3]; day 32, FGFR1-ECD.339-Fc 15 mg/kg i.p. 2x/wk x 4 wks, docetaxel 10 mg/kg i.p. 2x/wk x 4 wks): 0.54
- Fractional tumor volume (FTV), each treatment alone ([3]; day 38, FGFR1-ECD.339-Fc 15 mg/kg i.p. 2x/wk x 5 wks, paclitaxel 18 mg/kg i.p. days 8, 12, 15): 0.89
- Fractional tumor volume (FTV), each treatment alone ([3]; day 39, FGFR1-ECD.339-Fc 15 mg/kg i.p. 2x/wk (start day 1), vincristine 1 mg/kg i.p. days 8, 15, 22): 0.50
- Mean Tumor volume mm^3(±SD) [3, 7]: 807 (±431) mm^3
- Tumor growth inhibition (%) [3, 7]: 39%
- Fractional tumor volume (FTV) relative to control, each treatment alone ([3]; day 42, FGFR1-ECD.339-Fc 20 mg/kg, cisplatin 3.5 mg/kg): 0.60
- Fractional tumor volume (FTV), each treatment alone ([3]; day 46, FGFR1-ECD.339-Fc 15 mg/kg i.p. 2x/wk (start day 1), vincristine 1 mg/kg i.p. days 8, 15, 22): 0.40
- Fractional tumor volume (FTV), each treatment alone ([3]; day 70, FGFR1-ECD.339-Fc 20 mg/kg i.p. 2x/wk (start day 19), vincristine 1.5 mg/kg i.p. days 27, 34, 41): 0.71
- Fractional tumor volume (FTV), each treatment alone [4]: 0.58
- Fractional tumor volume (FTV), each treatment alone [5]: 0.77
